Data: ChEMBL document CHEMBL2311314 (J Med Chem, 2013)
In brackets after ≈: the same amount, converted by molar mass. Activity calls are given as the source filed them. The calls are words filed in the database; no cut-off is given here.

What was measured:
Replicase polyprotein 1a [1] = target: T1, Replicase polyprotein 1a (Severe acute respiratory syndrome-related coronavirus, UniProt P0C6U8); assay: (§1) Inhibition of SARS-CoV 3CLpro expressed in Escherichia coli BL21 (DE3) by FRET assay
[2] = target: Replicase polyprotein 1a (Severe acute respiratory syndrome-related coronavirus) (UniProt P0C6U8); assay: Inhibition of SARS-CoV 3CLpro expressed in Escherichia coli BL21 (DE3) at 100 uM by FRET assay in presence of 0.01% Triton X-100
[3] = target: Replicase polyprotein 1a (Severe acute respiratory syndrome-related coronavirus) (UniProt P0C6U8); assay: as §1
[4] = Aqueous solubility of the compound in PBS buffer at pH 7.4 after 4 hrs by HPLC with UV detection analysis; type: physicochemical
[5] = Cytotoxicity against african green monkey Vero E6 cells assessed as cell death at […] after 48 hrs by CellTiter-Glo luminescent cell viability assay; type: cell-based; details: chlorocebus sabaeus
Murine coronavirus [6] = assay: Inhibition of mouse coronavirus 3CLpro expressed in Escherichia coli BL21 (DE3) at 100 uM by FRET assay in absence of 0.01% Triton X-100
[7] = target: Replicase polyprotein 1a (Severe acute respiratory syndrome-related coronavirus) (UniProt P0C6U8); assay: Inhibition of SARS-CoV 3CLpro expressed in Escherichia coli BL21 (DE3) at 100 uM by FRET assay in absence of 0.01% Triton X-100
Human coronavirus HKU1 [8] = assay: Inhibition of human coronavirus HKU1 3CLpro expressed in Escherichia coli BL21 (DE3) at 100 uM by FRET assay in absence of 0.01% Triton X-100
Murine coronavirus [9] = assay: Inhibition of mouse coronavirus 3CLpro expressed in Escherichia coli BL21 (DE3) at 100 uM by FRET assay in presence of 0.01% Triton X-100
Human coronavirus HKU1 [10] = assay: Inhibition of human coronavirus HKU1 3CLpro expressed in Escherichia coli BL21 (DE3) at 100 uM by FRET assay in presence of 0.01% Triton X-100
[11] = Cytotoxicity against african green monkey Vero E6 cells after 48 hrs by CellTiter-Glo luminescent cell viability assay; type: cell-based; details: chlorocebus sabaeus
Replicase polyprotein 1a [12] = target: T1, Replicase polyprotein 1a; assay: Inhibition of SARS-CoV 3CLpro expressed in Escherichia coli BL21 (DE3) after 2 hrs by FRET assay
[13] = Ratio of EC50 for SARS-CoV infected in african green monkey Vero E6 cells to Ki for SARS-CoV 3CLpro; design: species or system Severe acute respiratory syndrome-related coronavirus
[14] = Inhibition of SARS-CoV PL-pro after 10 mins by luminescence assay; design: species or system Severe acute respiratory syndrome-related coronavirus

Row | Compound | inhibition [2] | also measured
1 | Cn1cnc(C(=O)N(c2ccc(C(C)(C)C)cc2)C(C(=O)NC(C)(C)C)c2cccnc2)c1 (stereo not drawn) | > 49% | IC50 (Replicase polyprotein 1a [1]): 75 µM
2 | CC(C)(C)NC(=O)C(c1cccnc1)N(C(=O)c1cn[nH]c1)c1ccc(C(C)(C)C)cc1 (stereo not drawn) | > 49% | –
3 | CC(C)(C)NC(=O)C(c1ccnnc1)N(C(=O)c1ccco1)c1ccc(C(C)(C)C)cc1 (stereo not drawn) | – | IC50 (Replicase polyprotein 1a [1]): 10 µM
4 | CC(C)(C)NC(=O)C(c1cccnc1)N(C(=O)C1=NC=NC1)c1ccc(C(C)(C)C)cc1 (stereo not drawn) | > 49% | IC50 (Replicase polyprotein 1a [1]): 6 µM
5 | CC(C)(C)NC(=O)C(c1cccnc1)N(C(=O)CC(F)(F)F)c1ccc(C(C)(C)C)cc1 (stereo not drawn) | 57% | –
6 | CC(C)(C)NC(=O)C(c1cccnc1)N(C(=O)c1ccco1)c1ccc(F)cc1 (stereo not drawn) | – | inhibition [3]: inactive
7 | CC(C)(C)NC(=O)[C@@H](c1cccnc1)N(C(=O)c1ccco1)c1ccc(C(C)(C)C)cc1 | – | solubility at 4 h [4]: 219 µM (≈ 94.9 µg/mL)
8 | CC(C)(C)NC(=O)C(c1cccnc1)N(C(=O)c1cccs1)c1ccc(C(C)(C)C)cc1 (stereo not drawn) | > 49% | IC50 (Replicase polyprotein 1a [1]): 50 µM
9 | CC(C)(C)NC(=O)C(c1cccnc1)N(C(=O)c1ccco1)C1CC1 (stereo not drawn) | – | inhibition [3]: inactive
10 | Cc1ccc(C(=O)N(c2ccc(C(C)(C)C)cc2)C(C(=O)NC(C)(C)C)c2cccnc2)o1 (stereo not drawn) | 55% | –
11 | CC(C)(C)NC(=O)C(c1ccsc1)N(C(=O)c1ccco1)c1ccc(C(C)(C)C)cc1 (stereo not drawn) | 11% | inhibition [3]: inactive
12 | CC(C)(C)NC(=O)C(c1cccnc1)N(C(=O)c1ccc(F)cc1)c1ccc(C(C)(C)C)cc1 (stereo not drawn) | > 49% | –
13 | CC(C)(C)NC(=O)C(c1cccnc1)N(C(=O)c1cc[nH]n1)c1ccc(C(C)(C)C)cc1 (stereo not drawn) | 56% | –
14 | CN(C)CCCSc1ccccc1NC(=O)/C=C/c1ccccc1 [CINANSERIN] | inactive | Activity [5]: > 90%; inhibition (Murine coronavirus [6]): inactive; inhibition [7]: inactive; inhibition (Human coronavirus HKU1 [8]): inactive; inhibition (Murine coronavirus [9]): inactive; inhibition (Human coronavirus HKU1 [10]): inactive; CC50 at 48 h [11]: 31 µM; CC90 at 48 h [11]: 66 µM; IC50 (Replicase polyprotein 1a [12]): 5 µM
15 | CC(C)(C)NC(=O)C(c1cccnc1)N(C(=O)c1ncco1)c1ccc(C(C)(C)C)cc1 (stereo not drawn) | > 49% | IC50 (Replicase polyprotein 1a [1]): 47 µM
16 | CC(C)(C)NC(=O)C(c1cccnc1)N(C(=O)c1ccc(Cl)o1)c1ccc(C(C)(C)C)cc1 (stereo not drawn) | > 49% | IC50 (Replicase polyprotein 1a [1]): 5.2 µM
17 | CC[C@H](NC(=O)[C@@H](NC(=O)OCc1ccccc1)[C@@H](C)OC(C)(C)C)C(=O)N[C@H](C=O)C[C@@H]1CCNC1=O | – | Ratio [13]: 11.5
18 | CC(C)(C)NC(=O)C(c1cccnc1)N(C(=O)C1CCCO1)c1ccc(C(C)(C)C)cc1 (stereo not drawn) | > 49% | –
19 | Cc1ccc(C(C(=O)NC(C)(C)C)N(C(=O)c2ccco2)c2ccc(C(C)(C)C)cc2)cn1 (stereo not drawn) | < 15% | –
20 | CC(C)(C)NC(=O)C(c1ccccn1)N(C(=O)c1ccco1)c1ccc(C(C)(C)C)cc1 (stereo not drawn) | < 15% | –
21 | CCN(CC)c1ccc(C(=O)On2nnc3ccccc32)cc1 | – | IC50 (Replicase polyprotein 1a [1]): 11.1 µM
22 | C=C(Cc1cccc(C)c1)C1=CC=C(c2ccc(C)cc2)C1 | – | IC50 (Replicase polyprotein 1a [1]): 13 µM
23 | COc1ccccc1C(=O)N(c1ccc(C(C)(C)C)cc1)C(C(=O)NC(C)(C)C)c1cccnc1 (stereo not drawn) | > 49% | –
24 | CC(C)(C)NC(=O)C(c1cccnc1)N(C(=O)c1ccccc1O)c1ccc(C(C)(C)C)cc1 (stereo not drawn) | > 49% | –
25 | CCC(C)c1ccc(N(C(=O)c2ccco2)C(C(=O)NC2CCCC2)c2cccnc2)cc1 (stereo not drawn) | – | IC50 (Replicase polyprotein 1a [1]): 2.2 µM; IC50 [14]: 34 µM
26 | CC(C)(C)NC(=O)C(c1cccnc1)N(C(=O)c1ccncc1)c1ccc(C(C)(C)C)cc1 (stereo not drawn) | > 49% | –

Row | Compound | inhibition [2] | also measured
27 | CC(C)(C)NC(=O)C(c1cccnc1)N(C(=O)c1ncccn1)c1ccc(C(C)(C)C)cc1 (stereo not drawn) | > 49% | –
28 | CC(C)c1ccc(N(C(=O)c2ccco2)C(C(=O)NC(C)(C)C)c2cccnc2)cc1 (stereo not drawn) | – | IC50 (Replicase polyprotein 1a [1]): 28.1 µM
29 | CC(C)(C)NC(=O)C(c1cccnc1)N(C(=O)c1cccnc1)c1ccc(C(C)(C)C)cc1 (stereo not drawn) | > 49% | –
30 | COCC(=O)N(c1ccc(C(C)(C)C)cc1)C(C(=O)NC(C)(C)C)c1cccnc1 (stereo not drawn) | > 49% | –
31 | CC(C)(C)NC(=O)C(c1cc[nH]n1)N(C(=O)c1ccco1)c1ccc(C(C)(C)C)cc1 (stereo not drawn) | < 15% | –
32 | CC(C)(C)NC(=O)C(c1cn[nH]c1)N(C(=O)c1ccco1)c1ccc(C(C)(C)C)cc1 (stereo not drawn) | 16% | –
33 | CC(C)(C)NC(=O)C(c1c[nH]cn1)N(C(=O)c1ccco1)c1ccc(C(C)(C)C)cc1 (stereo not drawn) | 23% | –
34 | CC(C)(C)NC(=O)C(c1cccnc1)N(C(=O)c1ncc[nH]1)c1ccc(C(C)(C)C)cc1 (stereo not drawn) | 49% | –
35 | CC(C)(C)NC(=O)C(c1cnccn1)N(C(=O)c1ccco1)c1ccc(C(C)(C)C)cc1 (stereo not drawn) | – | IC50 (Replicase polyprotein 1a [1]): 5.5 µM
36 | CC(C)(C)NC(=O)C(c1cccnc1)N(C(=O)c1cccc(O)c1)c1ccc(C(C)(C)C)cc1 (stereo not drawn) | > 49% | –
37 | COc1ccc(C(=O)N(c2ccc(C(C)(C)C)cc2)C(C(=O)NC(C)(C)C)c2cccnc2)cc1 (stereo not drawn) | > 49% | –
38 | CC(C)(C)NC(=O)C(c1cccnc1)N(C(=O)Cc1cnc[nH]1)c1ccc(C(C)(C)C)cc1 (stereo not drawn) | > 49% | –
39 | CC(C)(C)NC(=O)C(c1cccnc1)N(C(=O)Cc1ccccc1)c1ccc(C(C)(C)C)cc1 (stereo not drawn) | > 49% | –
40 | CC(C)(C)NC(=O)C(c1ccncc1)N(C(=O)c1ccco1)c1ccc(C(C)(C)C)cc1 (stereo not drawn) | – | IC50 (Replicase polyprotein 1a [1]): 45 µM
41 | O=C(Oc1cncc(Br)c1)c1cccs1 | – | IC50 (Replicase polyprotein 1a [1]): 0.5 µM
42 | CC(C)(C)NC(=O)C(c1cccnc1)N(C(=O)c1cnco1)c1ccc(C(C)(C)C)cc1 (stereo not drawn) | > 49% | IC50 (Replicase polyprotein 1a [1]): 39 µM
43 | CC(C)(C)NC(=O)C(c1cccnc1)N(C(=O)c1ccc[nH]1)c1ccc(C(C)(C)C)cc1 (stereo not drawn) | > 49% | –
44 | CC(C)(C)NC(=O)C(c1cccnc1)N(C(=O)CO)c1ccc(C(C)(C)C)cc1 (stereo not drawn) | > 49% | –
45 | CC(C)CC(=O)N(c1ccc(C(C)(C)C)cc1)C(C(=O)NC(C)(C)C)c1cccnc1 (stereo not drawn) | > 49% | –
46 | CC(C)(C)NC(=O)C(c1cccnc1)N(C(=O)c1ccc(O)cc1)c1ccc(C(C)(C)C)cc1 (stereo not drawn) | > 49% | –
47 | CC(C)(C)NC(=O)C(c1c[nH]nn1)N(C(=O)c1ccco1)c1ccc(C(C)(C)C)cc1 (stereo not drawn) | 23% | –
48 | CC(C)(C)NC(=O)C(c1cccnc1)N(C(=O)c1ccc(Cl)cc1)c1ccc(C(C)(C)C)cc1 (stereo not drawn) | > 49% | –
49 | Cc1ccoc1C(=O)N(c1ccc(C(C)(C)C)cc1)C(C(=O)NC(C)(C)C)c1cccnc1 (stereo not drawn) | 53% | –
50 | COc1cccc(C(=O)N(c2ccc(C(C)(C)C)cc2)C(C(=O)NC(C)(C)C)c2cccnc2)c1 (stereo not drawn) | > 49% | –
51 | CC(C)(C)NC(=O)C(c1cccnc1)N(C(=O)c1ccccn1)c1ccc(C(C)(C)C)cc1 (stereo not drawn) | > 49% | –
